According to ChEMBL document CHEMBL5029194, “Discovery and Optimization of 7-Alkylidenyltetrahydroindazole-Based Acylsulfonamide EP3 Antagonists” (ACS Med Chem Lett, 2022):
Activity calls are given as the source filed them. The calls are words filed in the database; no cut-off is given here.

Legend:
[1] = Cmax in Sprague-Dawley rat at 10 mg/kg, po measured up to 24 hrs by LC-MS-MS analysis; type: ADME, organism-based; design: route oral, dose 10 mg/kg, time <=24; details: in vivo
[2] = Half life in Sprague-Dawley rat at 2 mg/kg, iv measured up to 24 hrs by LC-MS-MS analysis; type: ADME, organism-based; details: in vivo
[3] = Clearance in Sprague-Dawley rat at 2 mg/kg, iv measured up to 24 hrs by LC-MS-MS analysis; type: ADME, organism-based; details: in vivo
[4] = Volume of distribution at steady state in Sprague-Dawley rat at 2 mg/kg, iv measured up to 24 hrs by LC-MS-MS analysis; type: ADME, organism-based; details: in vivo, read-out: Vdss
[5] = Half life in Sprague-Dawley rat at 10 mg/kg, po measured up to 24 hrs by LC-MS-MS analysis; type: ADME, organism-based; details: in vivo
[6] = AUC(0 to 24 hrs) in Sprague-Dawley rat at 10 mg/kg, po measured up to 24 hrs by LC-MS-MS analysis; type: ADME, organism-based; design: route oral, dose 10 mg/kg, time <=24; details: in vivo
[7] = Oral bioavailability in Sprague-Dawley rat at 10 mg/kg measured up to 24 hrs by LC-MS-MS analysis; type: ADME, organism-based; details: in vivo
[8] = AUClast in Sprague-Dawley rat at 10 mg/kg, po measured up to 24 hrs by LC-MS-MS analysis; type: ADME, organism-based; design: route oral, dose 10 mg/kg, time <=24; details: in vivo
[9] = Cmax in Sprague-Dawley rat at 10 mg/kg, po measured up to 7 hrs by LC-MS-MS analysis; type: ADME, organism-based; design: route oral, dose 10 mg/kg, time <=7; details: in vivo
[10] = AUClast in Sprague-Dawley rat at 10 mg/kg, po measured up to 7 hrs by LC-MS-MS analysis; type: ADME, organism-based; design: route oral, dose 10 mg/kg, time <=7; details: in vivo
[11] = target: T1, Prostaglandin E2 receptor EP1 subtype (Homo sapiens, UniProt P34995); test: Binding affinity to human EP1 receptor assessed as inhibition constant
T1 sequence (P34995 whole entry): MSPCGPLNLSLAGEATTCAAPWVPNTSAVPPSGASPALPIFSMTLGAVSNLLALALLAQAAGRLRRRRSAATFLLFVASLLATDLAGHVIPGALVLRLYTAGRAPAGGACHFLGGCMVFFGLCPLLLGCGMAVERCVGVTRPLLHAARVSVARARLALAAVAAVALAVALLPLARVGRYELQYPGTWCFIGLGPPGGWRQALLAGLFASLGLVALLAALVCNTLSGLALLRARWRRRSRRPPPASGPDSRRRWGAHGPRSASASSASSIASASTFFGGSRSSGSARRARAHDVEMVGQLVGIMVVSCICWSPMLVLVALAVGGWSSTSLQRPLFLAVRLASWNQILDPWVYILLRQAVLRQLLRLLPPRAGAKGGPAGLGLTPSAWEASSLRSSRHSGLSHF

[12] = target: Prostaglandin E2 receptor EP2 subtype (Homo sapiens, UniProt P43116); test: Binding affinity to human EP2 receptor assessed as inhibition constant
Sequence of Prostaglandin E2 receptor EP2 subtype (P43116 whole entry): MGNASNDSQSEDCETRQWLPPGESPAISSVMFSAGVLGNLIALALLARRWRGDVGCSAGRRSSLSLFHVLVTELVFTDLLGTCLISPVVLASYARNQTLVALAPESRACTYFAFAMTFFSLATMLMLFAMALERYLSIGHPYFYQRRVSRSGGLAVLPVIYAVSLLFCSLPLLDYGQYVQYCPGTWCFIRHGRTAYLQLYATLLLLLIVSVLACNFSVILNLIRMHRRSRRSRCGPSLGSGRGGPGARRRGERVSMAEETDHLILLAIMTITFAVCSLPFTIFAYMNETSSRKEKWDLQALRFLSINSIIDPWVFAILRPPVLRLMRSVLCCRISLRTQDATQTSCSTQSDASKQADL

[13] = target: Prostaglandin E2 receptor EP4 subtype (Homo sapiens, UniProt P35408); test: Binding affinity to human EP4 receptor assessed as inhibition constant
Sequence of Prostaglandin E2 receptor EP4 subtype (P35408 whole entry): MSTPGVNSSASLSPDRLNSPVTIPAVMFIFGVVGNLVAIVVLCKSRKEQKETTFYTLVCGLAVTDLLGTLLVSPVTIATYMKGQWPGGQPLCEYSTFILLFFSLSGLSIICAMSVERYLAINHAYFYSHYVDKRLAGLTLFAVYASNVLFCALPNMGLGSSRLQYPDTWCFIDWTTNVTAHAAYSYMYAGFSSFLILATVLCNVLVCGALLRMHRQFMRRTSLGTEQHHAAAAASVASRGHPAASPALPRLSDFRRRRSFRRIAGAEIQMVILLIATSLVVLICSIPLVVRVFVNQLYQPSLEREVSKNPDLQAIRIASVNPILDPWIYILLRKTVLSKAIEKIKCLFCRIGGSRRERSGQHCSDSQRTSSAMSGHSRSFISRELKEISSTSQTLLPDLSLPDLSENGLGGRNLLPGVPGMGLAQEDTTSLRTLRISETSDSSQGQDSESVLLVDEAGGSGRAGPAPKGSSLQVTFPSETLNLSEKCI

[14] = target: T2, Prostaglandin E2 receptor EP3 subtype (Rattus norvegicus, UniProt P34980); test: Binding affinity to rat EP3 receptor assessed as inhibition constant
T2 sequence (P34980 whole entry): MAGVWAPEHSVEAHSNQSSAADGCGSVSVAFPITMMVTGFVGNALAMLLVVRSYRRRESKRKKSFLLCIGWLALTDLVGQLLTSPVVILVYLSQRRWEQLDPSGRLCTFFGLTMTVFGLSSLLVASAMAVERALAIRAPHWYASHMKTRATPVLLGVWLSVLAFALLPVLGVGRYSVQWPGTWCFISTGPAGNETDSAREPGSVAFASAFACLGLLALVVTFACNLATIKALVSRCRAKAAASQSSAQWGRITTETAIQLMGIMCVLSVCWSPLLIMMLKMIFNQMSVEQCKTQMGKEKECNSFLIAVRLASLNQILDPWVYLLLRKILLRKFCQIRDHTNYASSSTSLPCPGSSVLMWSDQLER

Rattus norvegicus = test: In vivo antagonist activity at […] receptor in Sprague-Dawley rat assessed as reversal of sulprostone induced reduction in circulating insulin levels at 10 times Ki, administered as iv infusion measured up to 30 mins after glucose administration by glucose tolerance test; type: functional, organism-based; details: time min <=30
[15] = Free plasma concentration in Sprague-Dawley rat at 10 times Ki administered as iv infusion measured after 2 to 50 mins; type: ADME, organism-based; details: in vivo, time 2-50 min

Which results are given for O=C(NS(=O)(=O)c1ccc(Cl)cc1)OC/C=C1\CCCc2cnn(Cc3ccc(Cl)cc3Cl)c21?
Cmax [1]: 750 nM; half-life [2]: 3.5 h; clearance [3]: 21.3 mL/min/kg; Vd [4]: 4.61 L/kg; half-life [5]: 3.6 h; AUC(0-t) [6]: 7.43 µM·h; bioavailability [7]: 46%

Which Cmax [1] does the source give for O=C(NC/C=C1\CCCc2cnn(Cc3ccc(Cl)cc3Cl)c21)NS(=O)(=O)c1cc(Cl)c(Cl)s1 here?
The Cmax was 1670 nM.

And the AUC(0-t) at 24 h [8]?
The AUC(0-t) at 24 h was 2.75 µM·h.

And the half-life [2]?
The half-life was 0.79 h.

And the clearance [3]?
The clearance was 81.2 mL/min/kg.

And the Vd [4]?
The Vd was 2.21 L/kg.

What about the half-life [5] of the same compound?
The half-life was 2.8 h.

What about the AUC(0-t) [6] of the same compound?
Its AUC(0-t) is 2.75 µM·h.

And the bioavailability [7]?
Its bioavailability is 84%.

What does the source list for COc1ccc(Cl)cc1S(=O)(=O)NC(=O)NC/C(F)=C1\CCCc2cnn(Cc3ccc(Cl)cc3Cl)c21?
Cmax [9]: 4750 nM; AUC(0-t) at 7 h [10]: 10.8 µM·h

Which results are given for Cc1ncc(S(=O)(=O)NC(=O)NC/C=C2\CCCc3cnn(Cc4ccc(Cl)cc4Cl)c32)s1?
Cmax [9]: 510 nM; AUC(0-t) at 7 h [10]: 2.4 µM·h

Which Cmax [1] does the source give for COc1ccc(S(=O)(=O)NC(=O)NC/C(F)=C2\CCCc3cnn(Cc4ccc(Cl)cc4Cl)c32)cc1Cl here?
Its Cmax is 9390 nM.

What about the Cmax [9] of the same compound?
Its Cmax is 7100 nM.

And the AUC(0-t) at 7 h [10]?
The AUC(0-t) at 7 h was 31.9 µM·h.

What about the half-life [2] of the same compound?
The half-life was 6.2 h.

And the clearance [3]?
Its clearance is 2.6 mL/min/kg.

What about the Vd [4] of the same compound?
The Vd was 0.346 L/kg.

And the half-life [5]?
The half-life was 2.9 h.

And the AUC(0-t) [6]?
The AUC(0-t) was 49 µM·h.

And the bioavailability [7]?
The bioavailability was 44%.

With O=C(NS(=O)(=O)c1cc(Cl)c(Cl)s1)OC/C=C1\CCCc2cnn(Cc3ccc(Cl)cc3Cl)c21 as the compound, how does the Cmax [1] read?
The Cmax was 130 nM.

And the half-life [2]?
The half-life was 2.1 h.

And the clearance [3]?
Its clearance is 71.7 mL/min/kg.

And the Vd [4]?
Its Vd is 3.45 L/kg.

What about the half-life [5] of the same compound?
Its half-life is 2.3 h.

And the AUC(0-t) [6]?
The AUC(0-t) was 0.89 µM·h.

And the bioavailability [7]?
Its bioavailability is 24%.

What does the source list for Cc1cc(S(=O)(=O)NC(=O)NC/C(F)=C2\CCCc3cnn(Cc4ccc(Cl)cc4Cl)c32)sc1Cl?
Cmax [1]: 9950 nM; Cmax [9]: 11200 nM; AUC(0-t) at 7 h [10]: 57.8 µM·h; half-life [2]: 5.9 h; clearance [3]: 1.66 mL/min/kg; Vd [4]: 0.491 L/kg; half-life [5]: 3.2 h; AUC(0-t) [6]: 96.2 µM·h; bioavailability [7]: 55%

For O=C(NC/C=C1\CCCc2cnn(-c3ccc(C(F)(F)F)cc3)c21)NS(=O)(=O)c1cc(Cl)c(Cl)s1, which Cmax [9] is on record?
Its Cmax is 1540 nM.

And the AUC(0-t) at 7 h [10]?
Its AUC(0-t) at 7 h is 7.39 µM·h.

What does the source list for O=C(NC/C(F)=C1\CCCc2cnn(Cc3ccc(Cl)cc3Cl)c21)NS(=O)(=O)c1cc(Cl)c(Cl)s1?
Cmax [9]: 3820 nM; AUC(0-t) at 7 h [10]: 16.6 µM·h

What does the source list for O=C(NC/C=C1\CCCc2cnn(C3CCN(c4ccc(F)cc4)CC3)c21)NS(=O)(=O)c1cc(Cl)c(Cl)s1?
Cmax [9]: 130 nM; AUC(0-t) at 7 h [10]: 0.73 µM·h

With O=C(NC/C(F)=C1\CCCc2cnn(-c3ccc(C(F)(F)F)cc3)c21)NS(=O)(=O)c1cc(Cl)c(Cl)s1 as the compound, how does the Cmax [9] read?
The Cmax was 700 nM.

And the AUC(0-t) at 7 h [10]?
The AUC(0-t) at 7 h was 3.68 µM·h.

With O=C(NC/C=C1\CCCc2cnn(Cc3ccc(Cl)cc3Cl)c21)NS(=O)(=O)c1ccc(Cl)cc1 as the compound, how does the Ki [11] read?
The Ki was 3.5 µM.

And the Ki [12]?
The Ki was greater than 10 µM.

And the Ki [13]?
Its Ki is greater than 10 µM.

And the Ki [14]?
Its Ki is 0.0036 µM.

What about the Activity (Rattus norvegicus) of the same compound?
Its Activity is “Active”.

And the “Cp(f)” value [15]?
The value was 36 nM.

What about the Cmax [1] of the same compound?
Its Cmax is 1110 nM.

What about the AUC(0-t) at 24 h [8] of the same compound?
Its AUC(0-t) at 24 h is 5.27 µM·h.

And the half-life [2]?
Its half-life is 1.9 h.

And the clearance [3]?
The clearance was 14.9 mL/min/kg.

And the Vd [4]?
Its Vd is 1.44 L/kg.

And the half-life [5]?
The half-life was 2.8 h.

And the AUC(0-t) [6]?
Its AUC(0-t) is 5.27 µM·h.

What about the bioavailability [7] of the same compound?
Its bioavailability is 25%.
